Consider 25 compounds from patent US8394969B2, “Cyclic benzimidazole derivatives useful as anti-diabetic agents” (Merck Sharp & Dohme Corp., priority 2008, dated 2013).

The test addresses recombinant human AMPK complex 1 (containing α1β1γ1) (Homo sapiens, UniProt Q13131+Q9Y478). Nature of the test: […] (in vitro AMPK activation assay). The format is biochemical. As to conditions: recombinant human AMPK complex 1 (α1β1γ1); for Emax: basal activity subtracted, read-out: % Maximum AMP Activation of human AMPK Complex 1.

SMILES strings stand for the structures. Where a name gives a salt, the structure may show the parent alone.

What is called EC50 is the midpoint of the concentration-response curve.

Chain of recombinant human AMPK complex 1 (containing α1β1γ1) (Q13131 whole entry): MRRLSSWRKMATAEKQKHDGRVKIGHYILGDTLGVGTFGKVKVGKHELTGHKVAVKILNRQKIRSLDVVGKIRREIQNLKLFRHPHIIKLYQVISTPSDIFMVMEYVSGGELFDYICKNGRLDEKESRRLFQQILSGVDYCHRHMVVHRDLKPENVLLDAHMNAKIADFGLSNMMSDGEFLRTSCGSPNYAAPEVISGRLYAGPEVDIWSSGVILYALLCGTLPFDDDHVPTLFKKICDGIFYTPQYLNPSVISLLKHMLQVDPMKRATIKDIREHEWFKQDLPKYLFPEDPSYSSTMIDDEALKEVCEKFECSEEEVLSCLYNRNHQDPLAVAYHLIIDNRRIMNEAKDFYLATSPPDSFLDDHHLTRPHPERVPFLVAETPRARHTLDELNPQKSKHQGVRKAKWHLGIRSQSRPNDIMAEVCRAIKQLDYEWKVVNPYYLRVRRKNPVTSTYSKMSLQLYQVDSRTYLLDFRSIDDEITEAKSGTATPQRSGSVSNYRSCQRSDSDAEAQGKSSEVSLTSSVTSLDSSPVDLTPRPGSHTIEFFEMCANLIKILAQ
Chain of recombinant human AMPK complex 1 (containing α1β1γ1) (Q9Y478 whole entry): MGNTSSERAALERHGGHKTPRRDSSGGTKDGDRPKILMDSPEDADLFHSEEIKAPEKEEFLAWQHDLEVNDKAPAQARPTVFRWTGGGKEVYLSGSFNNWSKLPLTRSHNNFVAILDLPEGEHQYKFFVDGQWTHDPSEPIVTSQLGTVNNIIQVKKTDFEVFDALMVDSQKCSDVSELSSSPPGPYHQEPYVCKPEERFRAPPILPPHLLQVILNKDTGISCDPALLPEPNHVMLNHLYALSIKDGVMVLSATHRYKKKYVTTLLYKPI
Chain of recombinant human AMPK complex 1 (containing α1β1γ1) (P54619 whole entry partner): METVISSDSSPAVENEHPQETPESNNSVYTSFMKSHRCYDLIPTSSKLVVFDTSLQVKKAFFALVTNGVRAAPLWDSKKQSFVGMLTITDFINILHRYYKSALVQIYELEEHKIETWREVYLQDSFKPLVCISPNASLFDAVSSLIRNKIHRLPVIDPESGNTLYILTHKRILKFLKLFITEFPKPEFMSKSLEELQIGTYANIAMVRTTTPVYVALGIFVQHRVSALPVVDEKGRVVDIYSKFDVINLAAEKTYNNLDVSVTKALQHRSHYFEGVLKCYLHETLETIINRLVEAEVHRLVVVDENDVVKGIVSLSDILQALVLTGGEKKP

Take `Cc1ccc(Oc2nc3cc(-c4ccc5c(c4)N(C)CCN5C)c(Cl)cc3[nH]2)cc1C(=O)O` [Example 362, 5-[6-chloro-5-(1,4-dimethyl-1,2,3,4-tetrahydro-quinoxalin-6-yl)-1H-benzoimidazol-2-yloxy]-2-methyl-benzoic acid]: the Emax was more than 80%. On the same count and under the same terms, under `Cc1ccc(Oc2nc3cc(C#Cc4ccc(-c5nccs5)cc4)c(Cl)cc3[nH]2)cc1C(=O)O` [Example 84, 5-[6-Chloro-5-(4-thiazol-2-yl-phenylethynyl)-1H-benzoimidazol-2-yloxy]-2-methyl-benzoic acid] stands more than 80%; under `CCOC(=O)Cc1ccc(Oc2nc3cc(-c4ccc(-c5ccccc5)cc4)c(Cl)cc3[nH]2)cc1C(=O)OCC` [Example 9, 5-(5-Biphenyl-4-yl-6-chloro-1H-benzoimidazol-2-yloxy)-2-ethoxycarbonylmethyl-benzoic acid ethyl ester], more than 80%; under `Cc1ccc(Oc2nc3cc(-c4ccc5c(c4)c(CN(C)C)cn5C)c(Cl)cc3[nH]2)cc1C(=O)O` [Example 353, 5-[6-Chloro-5-(3-dimethylaminomethyl-1-methyl-1H-indol-5-yl)-1H-benzoimidazol-2-yloxy]-2-methyl-benzoic acid], more than 80%. Same read-out and setting: the result for `Cc1ccc(Oc2nc3cc(C#Cc4cccc(O)c4)c(Cl)cc3[nH]2)cc1C(=O)O` [Example 124, 5-[6-Chloro-5-(3-hydroxy-phenylethynyl)-1H-benzoimidazol-2-yloxy]-2-methyl-benzoic acid] reads more than 80%; that for `COc1ccc2cc(-c3cc4nc(Oc5ccc(C)c(C(=O)O)c5)[nH]c4cc3Cl)ccc2c1` [Example 145, 5-[6-Chloro-5-(6-methoxy-naphthalen-2-yl)-1H-benzoimidazol-2-yloxy]-2-methyl-benzoic acid], more than 80%; that for `Cc1ccc(Oc2nc3cc(-c4ccc5c(c4)CCNC5=O)c(Cl)cc3[nH]2)cc1C(=O)O` [Example 237, 5-[6-Chloro-5-(1-oxo-1,2,3,4-tetrahydro-isoquinolin-6-yl)-1H-benzoimidazol-2-yloxy]-2-methyl-benzoic acid], more than 80%. Still for that read-out and setting: the result for `Cc1ccc(Oc2nc3cc(C#Cc4ccc(F)cc4)c(Cl)cc3[nH]2)cc1C(=O)O` [Example 113, 5-[6-Chloro-5-(4-fluoro-phenylethynyl)-1H-benzoimidazol-2-yloxy]-2-methyl-benzoic acid] reads more than 80%; that for `COC(=O)c1cc(Oc2nc3cc(C#Cc4ccc(OC(F)(F)F)cc4)c(Cl)cc3[nH]2)ccc1C` [Example 98, 5-[6-Chloro-5-(4-trifluoromethoxy-phenylethynyl)-1H-benzoimidazol-2-yloxy]-2-methyl-benzoic acid methyl ester], more than 80%; that for `O=C(O)c1cccc(Nc2nc3cc(C#Cc4ccccc4)c(Cl)cc3[nH]2)c1` [Example 139, 3-(6-Chloro-5-phenylethynyl-1H-benzoimidazol-2-ylamino)-benzoic acid], more than 80%. Take `Cc1ccc(Oc2nc3cc(-c4ccc(-c5nnn[nH]5)cc4)c(Cl)cc3[nH]2)cc1C(=O)O` [Example 176, 5-{6-Chloro-5-[4-(1H-tetrazol-5-yl)-phenyl]-1H-benzoimidazol-2-yloxy}-2-methyl-benzoic acid]: the Emax is more than 80%. On to `O=C(O)CCc1ccc(Oc2nc3cc(-c4ccc(-c5ccccc5)cc4)c(Cl)cc3[nH]2)cc1` [Example 25, 3-[4-(5-Biphenyl-4-yl-6-chloro-1H-benzoimidazol-2-yloxy)-phenyl]-propionic acid], for which the Emax was more than 80%. Still for that read-out and setting: under `Cc1ccc(Oc2nc3cc(C#Cc4ccc(-c5cnc[nH]5)cc4)c(Cl)cc3[nH]2)cc1C(=O)O` [Example 75, 5-{6-Chloro-5-[4-(3H-imidazol-4-yl)-phenylethynyl]-1H-benzoimidazol-2-yloxy}-2-methyl-benzoic acid] stands more than 80%; under `Cc1ccc(Oc2nc3cc(-c4ccc(CN(C)C)cc4)c(Cl)cc3[nH]2)cc1C(=O)O` [Example 294, {4-[2-(3-carboxy-4-methylphenoxy)-6-chloro-1H-benzimidazol-5-yl]phenyl}-N,N-dimethylmethanaminium trifluoroacetate], more than 80%. Turning to `Cc1ccc(Oc2nc3cc(-c4ccc(C(C)(C)O)cc4)c(Cl)cc3[nH]2)cc1C(=O)O` [Example 183, 5-({6-chloro-5-[4-(1-hydroxy-1-methylethyl)phenyl]-1H-benzimidazol-2-yl}oxy)-2-methylbenzoic acid], the half-maximal effective concentration (EC50) (read-out: EC50) was 16 nM. With `COc1ccc2cc(-c3cc4nc(Oc5ccc(C)c(C(=O)O)c5)[nH]c4cc3Cl)ccc2n1` [Example 146, 5-[6-Chloro-5-(2-methoxy-quinolin-6-yl)-1H-benzoimidazol-2-yloxy]-2-methyl-benzoic acid], the Emax was more than 80%. Same read-out and setting: under `Cc1ccc(Oc2nc3cc(C#Cc4ccc(CCO)cc4)c(Cl)cc3[nH]2)cc1C(=O)O` [Example 69, 5-{6-chloro-5-[4-(2-hydroxy-ethyl)-phenylethynyl]-1H-benzoimidazol-2-yloxy}-2-methyl-benzoic acid] stands more than 80%. For the compound `Cc1ccc(Oc2nc3cc(-c4ccc(N5CCOCC5)nc4)c(Cl)cc3[nH]2)cc1C(=O)O` [Example 173, 5-[6-Chloro-5-(6-morpholin-4-yl-pyridin-3-yl)-1H-benzoimidazol-2-yloxy]-2-methyl-benzoic acid], the Emax was more than 80%. Turning to `CCN1CCc2cc(-c3cc4nc(Oc5ccc(C)c(C(=O)O)c5)[nH]c4cc3Cl)ccc21` [Example 276, 5-[6-Chloro-5-(1-ethyl-2,3-dihydro-1H-indol-5-yl)-1H-benzoimidazol-2-yloxy]-2-methyl-benzoic acid], the Emax is more than 80%. On to `Cc1ccc(Oc2nc3cc(-c4ccc(N5CCOCC5)cc4)c(Cl)cc3[nH]2)cc1C(=O)O` [Example 179, 5-[6-Chloro-5-(4-morpholin-4-yl-phenyl)-1H-benzoimidazol-2-yloxy]-2-methyl-benzoic acid], for which the Emax was more than 80%. Still for that read-out and setting: under `Cc1ccc(Oc2nc3cc(-c4ccc(C(=O)O)c5c4c(C)cn5C)c(Cl)cc3[nH]2)cc1C(=O)O` [Example 270, 4-[2-(3-Carboxy-4-methyl-phenoxy)-6-chloro-1H-benzoimidazol-5-yl]-1,3-dimethyl-1H-indole-7-carboxylic acid] stands more than 80%. Take `Cc1cc(Oc2nc3cc(-c4ccc(-c5ccccc5)cc4)c(Cl)cc3[nH]2)c(C)c(C(=O)O)c1` [Example 213, 3-(5-Biphenyl-4-yl-6-chloro-1H-benzoimidazol-2-yloxy)-2,5-dimethyl-benzoic acid]: the Emax is more than 80%. On the same count and under the same terms, the result for `Cc1ccc(Oc2nc3cc(C#CC(C)(C)O)c(Cl)cc3[nH]2)cc1C(=O)O` [Example 154, 5-[6-Chloro-5-(3-hydroxy-3-methyl-but-1-ynyl)-1H-benzoimidazol-2-yloxy]-2-methyl-benzoic acid] reads more than 80%; that for `Cc1ccc(Oc2nc3cc(-c4ccc5c(c4)OCCO5)c(Cl)cc3[nH]2)cc1C(=O)O` [Example 360, 5-[6-Chloro-5-(2,3-dihydro-benzo[1,4]dioxin-6-yl)-1H-benzoimidazol-2-yloxy]-2-methyl-benzoic acid], more than 80%; that for `Cc1ccc(Oc2nc3cc(-c4ccc(-c5ccc(C#N)cc5)cc4)c(Cl)cc3[nH]2)cc1C(=O)O` [Example 103, 5-[6-Chloro-5-(4′-cyano-biphenyl-4-yl)-1H-benzoimidazol-2-yloxy]-2-methyl-benzoic acid], more than 80%.
